Laboratory results taken from publication PMC10726920 (Cancer Medicine, 2023).
Entries after “also recorded” stand apart in the source; their conditions may differ.

Assays:
[1] = tested on: mTOR pathway substrates 4EBP1, S6, AKT; assay: Immunoblotting of paired bone marrow samples (pretreatment vs Day 8) from trial patients; format: in vivo, human
From the text: Bone marrow aspirates harvested prior to treatment and again prior to drug administration on Day 8 ± 2 of treatment from the same patients were shipped overnight to a central laboratory, where marrow mononuclear cells isolated on Ficoll–Hypaque gradients were lysed under denaturing conditions that preserve protein phosphorylations. Paired whole cell lysates were subjected to SDS‐polyacrylamide gel electrophoresis and immunoblotting as described in the Supplementary Method: Data S1.
Cells were isolated from bone marrow or blood samples using Histopaque-1077 (Millipore-Sigma, St. Louis, MO) step gradients. […] Cells for ex vivo drug exposure were resuspended at a concentration of 1 x 10^6 cells/ml in RPMI 1640 medium containing 10% (v/v) heat-inactivated fetal bovine serum, 50 U/ml penicillin G, 50 µg/ml streptomycin, and 1 mM glutamine.
After samples were dialyzed sequentially into 4 M urea and 0.1% (w/v) SDS, lyophilized and reconstituted in SDS-sample buffer consisting of 4 M urea, 2% (w/v) SDS, […] (pH 6.8 at 4 °C), 10 mM EDTA, and 1% (w/v/) 2-mercaptoethanol, aliquots containing […] of total cellular protein were subjected to SDS-PAGE on gels containing 5-20% polyacrylamide gradients, transferred to nitrocellulose, and probed with antibodies as previously described ^34, 35. […]

[2] = tested on: human ALL lines and clinical ALL samples; parameters: method as in PMID 26917778; details: cited from earlier work
[3] = Pearson correlation of sapanisertib clearance with toxicity and group variables; format: in vivo, human; details: p > 0.05
Procedure: Blood samples were obtained on Days 1, 2, and 8 of Cycle 1. […] plasma concentrations were measured using liquid chromatography‐mass spectroscopy. Plasma concentration‐time data were analyzed by standard methods using WinNonlin. Pearson's correlation coefficient (r) was used to assess correlation of group variables. Statistical significance was defined as p < 0.05. Additional details are contained in the Supplementary Method: Data S1.
Statistical significance was defined as P<0.05.

CC(C)n1nc(-c2ccc3oc(N)nc3c2)c2c(N)ncnc21 [sapanisertib]
induction of BIMEL and PUMA in trial samples ([1]; five pairs of samples): minimal in one pair of samples (Patient 2) and absent from the other four pairs
impact on mTOR‐mediated phosphorylation (4EBP1, S6, AKT) in trial samples ([1]; pretreatment vs Day 8 trough, five patients): limited impact; also recorded: little evidence that mTOR‐mediated phosphorylation has been disrupted; also recorded: failed to convincingly demonstrate inhibition
cytotoxic effects compared with rapamycin [2]: greater cytotoxic effects than rapamycin
correlation between systemic clearance and sex, age, or total body weight [3]: no significant correlation
